Laboratory results: publication PMC4488288, “Inhibition of the Inositol Kinase Itpkb Augments Calcium Signaling in Lymphocytes and Reveals a Novel Strategy to Treat Autoimmune Disease” (PLoS ONE, 2015)

Target: T1, Itpkb (inositol trisphosphate 3' kinase B) (Mus musculus, UniProt B2RXC2)
T1 sequence (B2RXC2 1-942): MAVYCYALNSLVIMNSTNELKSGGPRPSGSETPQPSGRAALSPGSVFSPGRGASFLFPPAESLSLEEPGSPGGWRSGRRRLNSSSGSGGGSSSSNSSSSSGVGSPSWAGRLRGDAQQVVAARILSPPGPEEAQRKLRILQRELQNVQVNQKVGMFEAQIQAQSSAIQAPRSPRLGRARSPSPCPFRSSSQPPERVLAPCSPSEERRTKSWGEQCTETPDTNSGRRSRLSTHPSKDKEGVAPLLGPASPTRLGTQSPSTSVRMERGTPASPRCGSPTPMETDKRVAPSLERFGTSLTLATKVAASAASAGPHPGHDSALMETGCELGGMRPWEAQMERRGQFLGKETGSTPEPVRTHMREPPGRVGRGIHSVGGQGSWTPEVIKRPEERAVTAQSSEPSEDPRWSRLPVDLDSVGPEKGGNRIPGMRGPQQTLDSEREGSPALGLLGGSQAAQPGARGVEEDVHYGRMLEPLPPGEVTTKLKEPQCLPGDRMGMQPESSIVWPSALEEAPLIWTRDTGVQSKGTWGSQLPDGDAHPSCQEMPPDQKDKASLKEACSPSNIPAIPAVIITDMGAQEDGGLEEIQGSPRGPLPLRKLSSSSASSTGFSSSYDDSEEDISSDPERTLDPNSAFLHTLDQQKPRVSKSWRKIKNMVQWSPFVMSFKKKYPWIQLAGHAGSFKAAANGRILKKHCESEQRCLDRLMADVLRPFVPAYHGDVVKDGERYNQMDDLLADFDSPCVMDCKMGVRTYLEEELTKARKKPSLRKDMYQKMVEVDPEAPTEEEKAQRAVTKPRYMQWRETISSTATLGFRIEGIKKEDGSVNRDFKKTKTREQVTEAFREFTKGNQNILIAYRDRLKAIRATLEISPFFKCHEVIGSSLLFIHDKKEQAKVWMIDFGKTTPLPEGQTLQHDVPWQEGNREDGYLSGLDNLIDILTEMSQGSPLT
Test: Kinase-Glo assay with purified Itpkb ([…] Itpkb, […] ATP, […] IP3)
Type: biochemical

- IC50: 9 nM
Substance: GNF362
